ChEMBL document CHEMBL1201862, “PubChem BioAssay data set” (2004)
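Protocol summary: plate cells (96-well), add compound at 5 concentrations, incubate 48 h, interpolate endpoints linearly. GI50 is the concentration that inhibits growth by half.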 Active and inactive are the calls of the source. Cut-off read from the data, not from the text of the source: active = GI50 up to about 1.1 µM and inactive = higher.

Legend:
Experiment in all cases: DTP human tumour cell line panel, 48 h
NCI/ADR-RES = tested on: NCI/ADR-RES
NCI-H23 = tested on: NCI-H23
HCC 2998 = tested on: HCC 2998
SK-MEL-28 = tested on: SK-MEL-28
SN12C = tested on: SN12C
NCI-H460 = tested on: NCI-H460
T47D = tested on: T47D
SW-620 = tested on: SW-620
M14 = tested on: M14
NCI-H522 = tested on: NCI-H522
UACC-62 = tested on: UACC-62
A549 = tested on: A549
OVCAR-4 = tested on: OVCAR-4
786-0 = tested on: 786-0
RPMI-8226 = tested on: RPMI-8226
CCRF-CEM = tested on: CCRF-CEM
ACHN = tested on: ACHN
HOP-62 = tested on: HOP-62
OVCAR-3 = tested on: OVCAR-3

SMILES	GI50 (NCI/ADR-RES)	GI50 (NCI-H23)	GI50 (HCC 2998)	GI50 (SK-MEL-28)	GI50 (SN12C)	GI50 (NCI-H460)	GI50 (T47D)	GI50 (SW-620)	GI50 (M14)	GI50 (NCI-H522)	GI50 (UACC-62)	GI50 (A549)	GI50 (OVCAR-4)	GI50 (786-0)	GI50 (RPMI-8226)	GI50 (CCRF-CEM)	GI50 (ACHN)	GI50 (HOP-62)	GI50 (OVCAR-3)
COCN1C(=O)[C@@H]2C[C@@H](O)CN2C(=O)c2ccccc21	> 100 µM (inactive)	> 100 µM (inactive)	> 100 µM (inactive)	> 100 µM (inactive)	> 100 µM (inactive)	> 100 µM (inactive)	> 100 µM (inactive)	> 100 µM (inactive)	> 100 µM (inactive)	> 100 µM (inactive)	> 100 µM (inactive)	> 100 µM (inactive)	> 100 µM (inactive)	> 100 µM (inactive)	> 100 µM (inactive)	> 100 µM (inactive)	> 100 µM (inactive)	> 100 µM (inactive)	
C=C(C)C12OC3(c4ccccc4)OC1C1C4OC4(CO)C(O)C4(O)C(=O)C(C)=CC4C1(O3)C(C)C2OC(=O)/C=C/C=C/c1ccccc1 (stereo not drawn)	0.344 µM (active)	0.312 µM (active)	< 0.0005 µM (active)	0.33 µM (active)	0.112 µM (active)	< 0.0005 µM (active)	1.51 µM (inactive)		0.0853 µM (active)	0.267 µM (active)	0.253 µM (active)	< 0.0005 µM (active)	0.173 µM (active)	0.101 µM (active)	0.107 µM (active)	0.128 µM (active)	< 0.0005 µM (active)	0.551 µM (active)	0.109 µM (active)
COc1ccc2cc(CNCCCCCCCCNCc3ccc4cc(OC)ccc4c3)ccc2c1	6.65 µM (inactive)	13.8 µM (inactive)	1.85 µM (inactive)	5.78 µM (inactive)		2.07 µM (inactive)	21.2 µM (inactive)	1.97 µM (inactive)	1.86 µM (inactive)	4.37 µM (inactive)	2.01 µM (inactive)	13.5 µM (inactive)	6.34 µM (inactive)	5.36 µM (inactive)	1.48 µM (inactive)	2.54 µM (inactive)	5.94 µM (inactive)	4.97 µM (inactive)	6.61 µM (inactive)
COc1cc([C@@H]2C3C(=O)c4ccccc4C3[C@@H](c3cc(OC)c(OC)c(OC)c3)C23Cc2ccccc2C3=O)cc(OC)c1OC (stereo partly drawn)	> 100 µM (inactive)	> 100 µM (inactive)	> 100 µM (inactive)	> 100 µM (inactive)	> 100 µM (inactive)	> 100 µM (inactive)	> 100 µM (inactive)	> 100 µM (inactive)	> 100 µM (inactive)	> 100 µM (inactive)		> 100 µM (inactive)	> 100 µM (inactive)	> 100 µM (inactive)	37.8 µM (inactive)	> 100 µM (inactive)	> 100 µM (inactive)	> 100 µM (inactive)	> 100 µM (inactive)
COc1cc(C(=O)n2c3ccc(Br)cc3c3nc4ccccc4nc32)cc(OC)c1OC	> 100 µM (inactive)	> 100 µM (inactive)	> 100 µM (inactive)	> 100 µM (inactive)	> 100 µM (inactive)	> 100 µM (inactive)	> 100 µM (inactive)	> 100 µM (inactive)	> 100 µM (inactive)	36.6 µM (inactive)	42.6 µM (inactive)		> 100 µM (inactive)	44.8 µM (inactive)	> 100 µM (inactive)	> 100 µM (inactive)	37.9 µM (inactive)	> 100 µM (inactive)	> 100 µM (inactive)
Cn1c2ccc3cc2c(=S)c2cc(ccc21)OCCOCCOCCOCCOCCOCCO3	> 10 µM (inactive)	> 10 µM (inactive)	> 10 µM (inactive)	> 10 µM (inactive)	> 10 µM (inactive)	> 10 µM (inactive)	> 10 µM (inactive)	> 10 µM (inactive)	> 10 µM (inactive)	> 10 µM (inactive)		> 10 µM (inactive)	> 10 µM (inactive)	> 10 µM (inactive)	> 10 µM (inactive)	> 10 µM (inactive)	> 10 µM (inactive)	> 10 µM (inactive)	> 10 µM (inactive)
